Test: physchem
[1] = LogPA (logP of the stated pure compound or, in a mixture, of the main isomer, 1-substituted 3-aryl-1H-pyrazole)

chromatographic logP (pH 2.7, logP (pH 2.7)) | chromatographic logP (pH 2.3, LogP (pH 2.3)) | chromatographic logP [1] | Structure (SMILES) | further results
1.4 |  |  | CC(C)n1cc(-c2ccncc2)c(-c2c(F)cccc2F)n1 [[I-d-1], 4-[3-(2,6-Difluorophenyl)-1-isopropyl-1H-pyrazol-4-yl]pyridine] | 
 |  |  | CCn1cc(-c2ccnc(NC(=O)CCc3ccc(Cl)cc3)c2)c(-c2ccc(F)cc2)n1 [Compound 336] | chromatographic logP (LogPA): 3.32
1.23 | 1.23 |  | Fc1ccc(-c2c(-c3ccncc3)cnn2C2CCCCO2)cc1 (centres unmarked) [[X-1], 4-[5-(4-Fluorophenyl)-1-(tetrahydro-2H-pyran-2-yl)-1H-pyrazol-4-yl]pyridine] | 
0.92 |  |  | Fc1ccc(-c2[nH]nc(C3CC3)c2-c2ccncc2)cc1 [[IX-b-2], 4-[3-(4-Fluorophenyl)-5-cyclopropyl-1H-pyrazol-4-yl]pyridine] | 
 |  | 2.37 | C=CCNc1nccc(-c2cnn(CC(C)C)c2-c2ccc(F)cc2)n1 [Compound 149] | 
 | 1.35 |  | Fc1ccc(-c2c(-c3ccncc3)cnn2C2CCCCO2)c(F)c1 (centres unmarked) [[X-8], 4-[5-(2,4-difluorophenyl)-1-(tetrahydro-2H-pyran-2-yl)-1H-pyrazol-4-yl]pyridine] | 
1.54 |  |  | CC(C)n1cc(-c2ccnc(N)n2)c(-c2ccc(F)cc2)n1 [[III-a-1], 4-[3-(4-Fluorophenyl)-1-isopropyl-1H-pyrazol-4-yl]pyrimidin-2-amine] | 
 |  | 0.17 | OCC(O)Cn1cc(-c2ccncc2)c(-c2ccc(F)cc2)n1 (centres unmarked) [Compound 124] | 
 |  | 1.84 | Fc1ccc(-c2nn(Cc3ccccc3F)cc2-c2ccncc2)cc1 [Compound 128] | 
 |  |  | CCn1cc(-c2ccnc(NC(=O)c3cn(C)nc3C(F)F)c2)c(-c2ccc(F)cc2)n1 [Compound 333] | chromatographic logP (LogPA): 2.47
4.27 | 4.27 |  | COC(=O)C(C(C)C)n1cc(Br)c(-c2ccc(F)cc2)n1 (centres unmarked) [[VI-16], Methyl 2-[4-bromo-3-(4-fluorophenyl)-1H-pyrazol-1-yl]-3-methylbutanoate] | 
 |  | 3.32 | COc1ccc(-c2nn(C3CCCCO3)cc2-c2cc(-n3cccn3)ncn2)cc1 (centres unmarked) [Compound 62] | 
 |  |  | CC(C)n1cc(-c2ccnc(NC(=O)C3CC3)n2)c(-c2ccc(F)cc2)n1 [Compound 356] | chromatographic logP (LogPA): 2.49
 | 1.45 |  | N#Cc1cc(-c2c(-c3ccncc3)cnn2C2CCCCO2)ccc1F (centres unmarked) [[X-12], 2-fluoro-5-[4-(pyridin-4-yl)-1-(tetrahydro-2H-pyran-2-yl)-1H-pyrazol-5-yl]benzonitrile] | 
 |  |  | Cn1cc(-c2ccnc(NC(=O)c3ccc(F)cc3)c2)c(-c2ccc(F)cc2)n1 [Compound 344] | chromatographic logP (LogPA): 2.61
 |  | 2.6 | CC(C)Cn1cc(-c2ccnc3c2CC(=O)N3)c(-c2ccc(F)cc2)n1 [Compound 147] | 
3.51 | 3.51 |  | CCOCCn1cc(Br)c(-c2ccc(F)cc2)n1 [[VI-20], 4-Bromo-1-(2-ethoxyethyl)-3-(4-fluorophenyl)-1H-pyrazole] | 
 | 2.02 |  | CC(C)(C)c1ccc(-c2c(-c3ccncc3)cnn2C2CCCCO2)cc1 (centres unmarked) [[X-9], 4-[5-(4-tert-butylphenyl)-1-(tetrahydro-2H-pyran-2-yl)-1H-pyrazol-4-yl]pyridine] | 
 |  | 0.99 | Fc1ccc(-c2nn(Cc3ccccn3)cc2-c2ccncc2)cc1 [Compound 115] | 
1.03 | 1.03 |  | Nc1cc(-c2cn(CC(F)F)nc2-c2ccc(F)cc2)ccn1 [[III-4], 4-[1-(2,2-Difluoroethyl)-3-(4-fluorophenyl)-1H-pyrazol-4-yl]pyridin-2-amine] | 
 |  | 2.72 | CNC(=O)c1cc(-c2cn(C3CCCCO3)nc2-c2ccc(F)cc2)ccn1 (centres unmarked) [Compound 90] | 
 |  | 2.39 | Fc1ccc(-c2nn(Cc3ccc(-c4ccccc4)cc3)cc2-c2ccncc2)cc1 [Compound 131] | 
 |  | 2.04 | Fc1ccc(-c2nn(CCc3ccccc3Cl)cc2-c2ccncc2)cc1 [Compound 119] | 
 |  |  | COCCn1cc(-c2ccnc(NC(C)C)n2)c(-c2ccc(F)cc2)n1 [Compound 358] | chromatographic logP (LogPA): 1.79
4.11 | 4.11 |  | CC(C)On1cc(Br)c(-c2ccc(F)cc2)n1 [[VI-25], 4-Bromo-3-(4-fluorophenyl)-1-isopropoxy-1H-pyrazole] | 
 |  | 1.54 | COc1ccc(-c2nn(C3CCCCO3)cc2-c2ncnc3[nH]ccc23)cc1 (centres unmarked) [Compound 65] | 
 |  | 0.25 | Fc1ccc(-c2nn(Cc3ccncc3)cc2-c2ccncc2)cc1 [Compound 121] | 
4.51 | 4.46 |  | CC(C)n1cc(B2OC(C)(C)C(C)(C)O2)c(-c2ccc(F)cc2)n1 [[V-1], 3-(4-Fluorophenyl)-1-isopropyl-4-(4,4,5,5-tetramethyl-1,3,2-dioxaborolan-2-yl)-1H-pyrazole] | 

chromatographic logP (pH 2.7, logP (pH 2.7)) | chromatographic logP (pH 2.3, LogP (pH 2.3)) | chromatographic logP [1] | Structure (SMILES) | further results
1.51 |  |  | N#Cc1cccc(Cn2cc(-c3ccncc3)c(-c3ccc(F)cc3)n2)c1 [[I-3], 3-{[3-(4-Fluorophenyl)-4-(pyridin-4-yl)-1H-pyrazol-1-yl]methyl}benzonitrile] | 
-0.18 |  |  | COCC(=O)Nc1cc(B2OC(C)(C)C(C)(C)O2)ccn1 [[XV-a-1], 2-Methoxy-N-[4-(4,4,5,5-tetramethyl-1,3,2-dioxaborolan-2-yl)pyridin-2-yl]acetamide] | 
 | 1.57 |  | Fc1ccc(-c2c(-c3ccncc3)cnn2C2CCCCO2)cc1Cl (centres unmarked) [[X-6], 4-[5-(3-chloro-4-fluorophenyl)-1-(tetrahydro-2H-pyran-2-yl)-1H-pyrazol-4-yl]pyridine] | 
 |  | 2.38 | Fc1ccc(-c2nn(Cc3cccc(-c4ccccc4)c3)cc2-c2ccncc2)cc1 [Compound 125] | 
 |  | 2.9 | Fc1ccc(-c2nn(-c3nnc(C(F)(F)F)s3)cc2-c2ccncc2)cc1 [Compound 111] | 
4.15 | 4.15 |  | CC(C)Cn1cc(Br)c(-c2ccc(F)c(C#N)c2)n1 [[VI-11], 5-(4-Bromo-1-isobutyl-1H-pyrazol-3-yl)-2-fluorobenzonitrile] | 
 |  | 1.24 | COc1ccc(-c2nn(C3CCCCO3)cc2-c2ccncc2)cc1 (centres unmarked) [Compound 43] | 
4.06 | 4.06 |  | CC1(C)OB(c2cn(CCCl)nc2-c2ccc(F)cc2)OC1(C)C [[V-10], 1-(2-Chloroethyl)-3-(4-fluorophenyl)-4-(4,4,5,5-tetramethyl-1,3,2-dioxaborolan-2-yl)-1H-pyrazole] | 
 |  | 2.64 | Fc1ccc(-c2nn(-c3ccc(C(F)(F)F)cn3)cc2-c2ccncc2)cc1 [Compound 79] | 
4.04 |  |  | CC(C)Cn1ncc(Br)c1-c1ccc(F)cc1 [[VI-5], 4-Bromo-5-(4-fluorophenyl)-1-isobutyl-1H-pyrazole] | 
 |  |  | CC(C)Nc1nccc(-c2c[nH]nc2-c2ccc(F)cc2)n1 [Compound 172] | chromatographic logP (LogPA): 1.37
4.81 | 4.81 |  | CC(C)On1cc(B2OC(C)(C)C(C)(C)O2)c(-c2ccc(F)cc2)n1 [[V-5], 3-(4-Fluorophenyl)-1-isopropoxy-4-(4,4,5,5-tetramethyl-1,3,2-dioxaborolan-2-yl)-1H-pyrazole] | 
4.91 | 4.91 |  | CC(C)Cn1nc(-c2ccc(F)cc2)c(Br)c1OC(F)F [[VI-b-3], 4-Bromo-5-(difluoromethoxy)-3-(4-fluorophenyl)-1-isobutyl-1H-pyrazole] | 
 |  | 3.5 | CC(C)=CCn1cc(-c2ccncn2)c(-c2cccc(Cl)c2)n1 [Compound 34] | 
 |  |  | CCC(=O)Nc1cc(-c2c(-c3ccc(Cl)cc3F)nn(C)c2C(F)(F)F)ccn1 [Compound 197] | chromatographic logP (LogPA): 3.32
 |  |  | CCOC(=O)Nc1cc(-c2cn(Cc3ccccc3F)nc2-c2ccc(F)cc2)ccn1 [Compound 266] | chromatographic logP (LogPA): 3.24
1.37 |  |  | CC(C)Nc1nccc(-c2c[nH]nc2-c2ccc(F)cc2)n1 [[XLVI-1], 4-[3-(4-fluorophenyl)-1H-pyrazol-4-yl]-N-isopropylpyrimidin-2-amine] | 
 | 0.96 |  | CS(=O)(=O)c1ccc(-c2c(-c3ccncc3)cnn2C2CCCCO2)cc1 (centres unmarked) [[X-17], 4-{5-[4-(methylsulphonyl)phenyl]-1-(tetrahydro-2H-pyran-2-yl)-1H-pyrazol-4-yl}pyridine] | 
 | 0.92 |  | NS(=O)(=O)c1ccc(-c2c(-c3ccncc3)cnn2C2CCCCO2)cc1 (centres unmarked) [[X-23], 4-[4-(pyridin-4-yl)-1-(tetrahydro-2H-pyran-2-yl)-1H-pyrazol-5-yl]benzenesulphonamide] | 
 |  | 3.58 | CSc1nccc(-c2cn(C3CCCCO3)nc2-c2ccc(F)cc2)n1 (centres unmarked) [Compound 74] | 
0.71 | 0.71 |  | Cn1cc(-c2ccnc(N)c2)c(-c2ccc(F)cc2)n1 [[III-5], 4-[3-(4-Fluorophenyl)-1-methyl-1H-pyrazol-4-yl]pyridin-2-amine] | 
 |  | 1.69 | Fc1ccc(Cn2cc(-c3ccncc3)c(-c3ccc(F)cc3)n2)cc1 [Compound 130] | 
 |  | 1.26 | COc1cc(F)ccc1-c1c(-c2ccncc2)cnn1C1CCCCO1 (centres unmarked) [Compound 64, 4-[5-(4-fluoro-2-methoxyphenyl)-1-(tetrahydro-2H-pyran-2-yl)-1H-pyrazol-4-yl]pyridine] | 
4.39 | 4.39 |  | Fc1ccc(-c2nn(Cc3ccccc3F)cc2Br)cc1 [[VI-13], 4-Bromo-1-(2-fluorobenzyl)-3-(4-fluorophenyl)-1H-pyrazole] | 
 |  |  | CCn1cc(-c2ccnc(NC(=O)CCCCC(=O)OC)c2)c(-c2ccc(F)cc2)n1 [Compound 330] | chromatographic logP (LogPA): 2.16
1.54 |  |  | CC(C)n1ncc(-c2ccncc2)c1-c1c(F)cccc1F [[I-d-2], 4-[5-(2,6-Difluorophenyl)-1-isopropyl-1H-pyrazol-4-yl]pyridine] | 
 |  | 1.66 | Clc1cccc(-c2c(-c3ccncc3)cnn2C2CCCCO2)c1Cl (centres unmarked) [Compound 76, 4-[5-(2,3-dichlorophenyl)-1-(tetrahydro-2H-pyran-2-yl)-1H-pyrazol-4-yl]pyridine] | 

Structure (SMILES) | chromatographic logP (pH 2.7, logP (pH 2.7)) | chromatographic logP (pH 2.3, LogP (pH 2.3)) | chromatographic logP [1] | further results
CC(C)Cn1cc(-c2ccnc(NC(=O)C(C)C)c2)c(-c2ccc(F)cc2)n1 [[I-c-2], N-{4-[3-(4-fluorophenyl)-1-isobutyl-1H-pyrazol-4-yl]pyridin-2-yl}-2-methylpropanamide] | 2.89 |  |  | 

From patent US20110183978A1, “Phenylpyri(mi)dinylazoles” (Bayer CropScience AG, priority 2009, published 2011)
